The supplement of paper PMC10307832

Key:
Assay in all cases: relative viability (nuclei count vs DMSO), 5 days (fraction); higher = more cells survive
[1] = test system: HCC-15
Method in brief: (§1)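 Five library-drug doses in √10 steps were combined with a fixed anchor-drug dose, or a single drug was given alone, by pin tool to lung cancer cell lines in 1536-well plates the day after seeding. Nuclei were stained and counted after 5 days. Relative viability is the nuclei count in treated wells over that in vehicle wells, taken as the median of duplicate plates.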

[2] = test system: SW 1573
Method in brief: as §1

[3] = test system: LCLC-97TM1
Method in brief: as §1

[4] = test system: UMC-11
Method in brief: as §1

[5] = test system: LC-2-ad
Method in brief: as §1

[6] = test system: NCI-H1734
Method in brief: as §1

[7] = test system: NCI-H1563
Method in brief: as §1

[8] = test system: NCI-H1975
Method in brief: as §1

[9] = test system: NCI-H838
Method in brief: as §1

[10] = test system: NCI-H2023
Method in brief: as §1

[11] = test system: NCI-H1792
Method in brief: as §1

[12] = test system: A-427
Method in brief: as §1

[13] = test system: COR-L 105
Method in brief: as §1

[14] = test system: NCI-H1915
Method in brief: as §1

[15] = test system: HCC-44
Method in brief: as §1

[16] = test system: EPLC-272H
Method in brief: as §1

[17] = test system: CAL-12T
Method in brief: as §1

[18] = test system: NCI-H520
Method in brief: as §1

[19] = test system: NCI-H2347
Method in brief: as §1

[20] = test system: NCI-H2405
Method in brief: as §1

Compound: CN1CCN(CCOc2cc(OC3CCOCC3)c3c(Nc4c(Cl)ccc5c4OCO5)ncnc3c2)CC1 [Saracatinib] + CC(C)C[C@H](NC(=O)[C@H](Cc1ccccc1)NC(=O)c1cnccn1)B(O)O [Bortezomib] (partner 0.002 µM)
- relative viability ([1]; first compound 0.02 µM): 0.969
- relative viability ([1]; first compound 0.2 µM): 0.986
- relative viability ([1]; first compound 0.6325 µM): 1.04
- relative viability ([1]; first compound 2 µM): 0.918
- relative viability ([2]; first compound 0.02 µM): 0.997
- relative viability ([2]; first compound 0.2 µM): 0.906
- relative viability ([2]; first compound 0.6325 µM): 0.955
- relative viability ([2]; first compound 2 µM): 0.933
- relative viability ([3]; first compound 0.02 µM): 0.786
- relative viability ([3]; first compound 0.6325 µM): 0.995
- relative viability ([3]; first compound 2 µM): 0.523
- relative viability ([4]; first compound 0.02 µM): 0.667
- relative viability ([4]; first compound 0.6325 µM): 0.64
- relative viability ([4]; first compound 2 µM): 0.494
- relative viability ([5]; first compound 0.02 µM): 1.15
- relative viability ([5]; first compound 0.6325 µM): 1.12
- relative viability ([5]; first compound 2 µM): 0.843
- relative viability ([6]; first compound 0.02 µM): 1.08
- relative viability ([6]; first compound 0.6325 µM): 0.891
- relative viability ([6]; first compound 2 µM): 0.842
- relative viability ([7]; first compound 0.02 µM): 0.857
- relative viability ([7]; first compound 0.2 µM): 0.713
- relative viability ([7]; first compound 0.6325 µM): 0.707
- relative viability ([7]; first compound 2 µM): 0.712
- relative viability ([8]; first compound 0.02 µM): 0.356
- relative viability ([8]; first compound 0.6325 µM): 0.443
- relative viability ([8]; first compound 2 µM): 0.331
- relative viability ([9]; first compound 0.02 µM): 0.78
- relative viability ([9]; first compound 0.2 µM): 0.702
- relative viability ([9]; first compound 0.6325 µM): 0.482
- relative viability ([9]; first compound 2 µM): 0.431
- relative viability ([10]; first compound 0.02 µM): 1.1
- relative viability ([10]; first compound 0.2 µM): 0.902
- relative viability ([10]; first compound 0.6325 µM): 1.05
- relative viability ([10]; first compound 2 µM): 0.906
- relative viability ([11]; first compound 0.02 µM): 0.956
- relative viability ([11]; first compound 0.2 µM): 0.344
- relative viability ([11]; first compound 0.6325 µM): 1.06
- relative viability ([11]; first compound 2 µM): 0.914
- relative viability ([12]; first compound 0.02 µM): 1.03
- relative viability ([12]; first compound 0.2 µM): 0.804
- relative viability ([12]; first compound 0.6325 µM): 0.871
- relative viability ([12]; first compound 2 µM): 0.981
- relative viability ([13]; first compound 0.02 µM): 1.11
- relative viability ([13]; first compound 0.2 µM): 0.699
- relative viability ([13]; first compound 0.6325 µM): 0.707
- relative viability ([13]; first compound 2 µM): 0.432
- relative viability ([14]; first compound 0.02 µM): 0.959
- relative viability ([14]; first compound 0.2 µM): 0.813
- relative viability ([14]; first compound 0.6325 µM): 0.978
- relative viability ([14]; first compound 2 µM): 0.886
- relative viability ([15]; first compound 0.02 µM): 0.917
- relative viability ([15]; first compound 0.2 µM): 0.78
- relative viability ([15]; first compound 0.6325 µM): 0.93
- relative viability ([15]; first compound 2 µM): 1.02
- relative viability ([16]; first compound 0.02 µM): 0.812
- relative viability ([16]; first compound 0.2 µM): 0.786
- relative viability ([16]; first compound 0.6325 µM): 1.2
- relative viability ([16]; first compound 2 µM): 0.932
- relative viability ([17]; first compound 0.02 µM): 0.944
- relative viability ([17]; first compound 0.2 µM): 0.949
- relative viability ([17]; first compound 0.6325 µM): 1.24
- relative viability ([17]; first compound 2 µM): 0.639
- relative viability ([18]; first compound 0.02 µM): 0.663
- relative viability ([18]; first compound 0.2 µM): 0.431
- relative viability ([18]; first compound 0.6325 µM): 0.289
- relative viability ([18]; first compound 2 µM): 0.174
- relative viability ([19]; first compound 0.02 µM): 1.01
- relative viability ([19]; first compound 0.2 µM): 0.921
- relative viability ([19]; first compound 0.6325 µM): 1.2
- relative viability ([19]; first compound 2 µM): 0.893
- relative viability ([20]; first compound 0.02 µM): 1.03
- relative viability ([20]; first compound 0.2 µM): 0.749
- relative viability ([20]; first compound 0.6325 µM): 0.736
- relative viability ([20]; first compound 2 µM): 0.716

Compound: CN1CCN(CCOc2cc(OC3CCOCC3)c3c(Nc4c(Cl)ccc5c4OCO5)ncnc3c2)CC1 [Saracatinib] + C[C@@H](Oc1cc(-c2cnn(C3CCNCC3)c2)cnc1N)c1c(Cl)ccc(F)c1Cl [Crizotinib] (partner 1 µM)
- relative viability ([1]; first compound 0.02 µM): 0.817
- relative viability ([1]; first compound 0.2 µM): 0.693
- relative viability ([1]; first compound 0.6325 µM): 0.805
- relative viability ([1]; first compound 2 µM): 0.765
- relative viability ([2]; first compound 0.02 µM): 0.744
- relative viability ([2]; first compound 0.2 µM): 0.801
- relative viability ([2]; first compound 0.6325 µM): 0.903
- relative viability ([2]; first compound 2 µM): 0.591
- relative viability ([3]; first compound 0.02 µM): 0.416
- relative viability ([3]; first compound 0.2 µM): 0.268
- relative viability ([3]; first compound 0.6325 µM): 0.457
- relative viability ([3]; first compound 2 µM): 0.316
- relative viability ([4]; first compound 0.02 µM): 0.571
- relative viability ([4]; first compound 0.6325 µM): 0.677
- relative viability ([4]; first compound 2 µM): 0.386
- relative viability ([5]; first compound 0.02 µM): 0.434
- relative viability ([5]; first compound 0.2 µM): 0.41
- relative viability ([5]; first compound 0.6325 µM): 0.513
- relative viability ([5]; first compound 2 µM): 0.371
- relative viability ([6]; first compound 0.02 µM): 0.751
- relative viability ([6]; first compound 0.6325 µM): 0.656
- relative viability ([6]; first compound 2 µM): 0.507
- relative viability ([7]; first compound 0.02 µM): 0.905
- relative viability ([7]; first compound 0.2 µM): 0.778
- relative viability ([7]; first compound 0.6325 µM): 0.677
- relative viability ([7]; first compound 2 µM): 0.635
- relative viability ([8]; first compound 0.02 µM): 1.02
- relative viability ([8]; first compound 0.6325 µM): 0.823
- relative viability ([8]; first compound 2 µM): 0.515
- relative viability ([9]; first compound 0.02 µM): 0.818
- relative viability ([9]; first compound 0.2 µM): 0.779
- relative viability ([9]; first compound 0.6325 µM): 0.608
- relative viability ([9]; first compound 2 µM): 0.582
- relative viability ([10]; first compound 0.02 µM): 0.769
- relative viability ([10]; first compound 0.2 µM): 0.428
- relative viability ([10]; first compound 0.6325 µM): 0.391
- relative viability ([10]; first compound 2 µM): 0.356
- relative viability ([11]; first compound 0.02 µM): 0.94
- relative viability ([11]; first compound 0.2 µM): 0.922
- relative viability ([11]; first compound 0.6325 µM): 1.15
- relative viability ([11]; first compound 2 µM): 0.684
- relative viability ([12]; first compound 0.02 µM): 1.04
- relative viability ([12]; first compound 0.2 µM): 0.604
- relative viability ([12]; first compound 0.6325 µM): 0.837
- relative viability ([12]; first compound 2 µM): 0.926
- relative viability ([13]; first compound 0.02 µM): 0.881
- relative viability ([13]; first compound 0.2 µM): 0.763
- relative viability ([13]; first compound 0.6325 µM): 0.459
- relative viability ([13]; first compound 2 µM): 0.252
- relative viability ([14]; first compound 0.02 µM): 0.913
- relative viability ([14]; first compound 0.2 µM): 0.846
- relative viability ([14]; first compound 0.6325 µM): 0.916
- relative viability ([14]; first compound 2 µM): 0.875
- relative viability ([15]; first compound 0.02 µM): 0.859
- relative viability ([15]; first compound 0.2 µM): 0.738
- relative viability ([15]; first compound 0.6325 µM): 0.952
- relative viability ([15]; first compound 2 µM): 1.01
- relative viability ([16]; first compound 0.02 µM): 0.96
- relative viability ([16]; first compound 0.2 µM): 0.826
- relative viability ([16]; first compound 0.6325 µM): 0.779
- relative viability ([16]; first compound 2 µM): 0.729
- relative viability ([17]; first compound 0.02 µM): 0.649
- relative viability ([17]; first compound 0.2 µM): 0.522
- relative viability ([17]; first compound 0.6325 µM): 0.746
- relative viability ([17]; first compound 2 µM): 0.367
- relative viability ([18]; first compound 0.02 µM): 0.74
- relative viability ([18]; first compound 0.2 µM): 0.732
- relative viability ([18]; first compound 0.6325 µM): 0.531
- relative viability ([18]; first compound 2 µM): 0.37
- relative viability ([19]; first compound 0.02 µM): 0.732
- relative viability ([19]; first compound 0.2 µM): 0.686
- relative viability ([19]; first compound 0.6325 µM): 1.03
- relative viability ([19]; first compound 2 µM): 0.486
- relative viability ([20]; first compound 0.02 µM): 0.854
- relative viability ([20]; first compound 0.2 µM): 0.788
- relative viability ([20]; first compound 0.6325 µM): 0.751
- relative viability ([20]; first compound 2 µM): 0.501
